Test results reported in patent US10166237B2, “Compounds and methods for inducing chondrogenesis” (The Scripps Research Institute, priority 2011, dated 2019).
Like-named read-outs stand apart in the source and are kept apart here.

What was measured:
[1] = tested on: human mesenchymal stem cells (hMSCs); test: chondrogenic nodule formation by hMSCs (high throughput screen); assay type: cell-based
In short: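 Primary hMSCs (10^4/well) in serum-free DMEM exposed to compounds at 5 μM for 4 days. Chondrogenic nodules stained with Nile red (binds collagens) and counted by high-content imaging with 488 laser excitation. In 96-well follow-up, 50,000 cells/well treated 4 days, formalin-fixed, stained with 1 μg/ml Rhodamine B.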

[2] = tested on: primary bovine chondrocytes; test: inhibition of cytokine-induced nitric oxide release (Greiss reaction); assay type: cell-based
From the text: (§1) In the screen, hMSCs were used as a surrogate to future targeting of the resident MSCs with the cartilage joint. It was in that setting upon which we identified PRO1. In a joint injury, the primary cell type a therapeutic would have contact with is the chondrocyte. Although cartilage or chondrocyte-targeted screening has not lead to the development of a successful drug modifying osteoarthritis drug (DMOAD) to date, it is believed that a stem cell-based therapeutic would protect and even repair the existing chondrocytes. Therefore, protection of the articular chondrocytes and cartilage from a mature bovine knee was assessed. PRO1 and its analogues were incubated with primary bovine chondrocytes or cartilage explants cultures grown in the presence of TNFα and oncostatin M to mimic the cytokine-induced damage that can occur during OA. In the presence of the cytokine cocktail, in vitro cultured primary chondrocytes released 4-5 fold more nitric oxide (NO) than the untreated chondrocytes (50 μM vs 10 μM) as measured by the Greiss reaction. In cells treated with the cytokine cocktail and PRO1, the small molecule could effectively block the release of NO by up to 70% FIG. 2C). Similarly, in ex vivo treated cartilage explants, cytokine-induced release of glycosaminoglycans (GAG) was reduced by up to 60% by PRO1 (FIG. 2D). Finally, hMSC were grown in pellet culture for 21 days.
Primary hMSCs were plated (10,000/well) in 384-well plates and cultured for 18 days. The cells were fixed with 4% formalin, permeabilized with triton (0.5%), digested with 0.5 mg/ml collagenase II to unwind the collagen fibrils, and then immunostained with an antibody recognizing type II collagen. DAPI (2 μg/ml) was added to visualize the nuclei. The chondrogenic nodules stained positive for type II collagen but lacked expression of type X collagen and osteocalcin, markers for chondrocyte hypertrophy and osteoblasts, respectively (not shown). 10,000 hMSCs (passages 3-5) were plated in Greiner 384-well low-bottom plates on day 1. The cells were allowed to adhere and stimulated for 48 hrs (days 2-3) with the indicated stimuli in MSC growth media (Millipore). The media was then removed and replaced with serum-free DMEM for an additional 16 days. This media was replenished on days 10 and 15 of the assay. Primary bovine chondrocytes were isolated from the articular surfaces from mature knees. After one week of culture, 8,500 cells were trypsinized and plated in Greiner 384-well white clear-bottom plates in growth media. […] 20 μl of the supernatant was mixed with 20 μl of the Greiss reagent and quantitated at 540 nm as described by the Promega kit instructions. Bovine cartilage explants (cut in circular explants in a 96 well plate) were cultured in the presence of 20 ng/ml TNFα and 10 ng/ml oncostatin M to induce GAG release for 72 hours (FIG. 2D). PRO1 was added at the indicated concentrations during the entire 72 hrs. […] Parafin sections were hydrated, incubated in low pH Antigen unmasking solution (Vector) at 90 C for 10 minutes, permeabilized with 0.1% collagenase II (only for the sections stained with type II collagen) for 10 minutes, blocked with CAS block for 10 minutes and then incubated with the primary antibody (type II collagen, aggrecan or Timp1) antibody (Abcam) overnight at 4 C. The antigens were visualized through standard ABC detection methods and developed with DAB. Representative of 3 sections stained/treatment group (independent experiments).

[3] = tested on: bovine cartilage explants; test: cytokine-induced GAG release from cartilage explants ex vivo; assay type: cell-based; details: TNFα and oncostatin M, 72 hours; up to
From the text: as §1, with “In cells treated with the cytokine cocktail and PRO1, the small molecule could effectively block the release of NO by up to 70% FIG. 2C). Similarly, in ex vivo treated cartilage explants, cytokine-induced release of glycosaminoglycans (GAG) was reduced by up to 60% by PRO1 (FIG. 2D). Finally, hMSC were grown in pellet culture for 21 days.” left out
(§2) Primary hMSCs were plated (10,000/well) in 384-well plates and cultured for 18 days. […] 20 μl of the supernatant was mixed with 20 μl of the Greiss reagent and quantitated at 540 nm as described by the Promega kit instructions. […]

[4] = tested on: chondrocytes; test: toxicity in chondrocytes; assay type: cell-based; details: 100 μM
[5] = tested on: HEK 293 cells; test: toxicity in HEK 293 cells; assay type: cell-based; details: 100 μM
[6] = tested on: hMSC; test: type II collagen and aggrecan immunohistochemistry in hMSC pellet culture; assay type: cell-based, human; details: 21 days
From the text: as §1, with “In cells treated with the cytokine cocktail and PRO1, the small molecule could effectively block the release of NO by up to 70% FIG. 2C). Similarly, in ex vivo treated cartilage explants, cytokine-induced release of glycosaminoglycans (GAG) was reduced by up to 60% by PRO1 (FIG. 2D). Finally, hMSC were grown in pellet culture for 21 days.” left out
as §2

[7] = tested on: C57BL/10 mice; test: collagenase VII-induced knee joint damage; assay type: in vivo; details: 10 μM intra-articular on days 7 and 21
Method: IA injections of C57BL/10 mice with collagenase VII (12 U/knee) induced joint damage through digestion of the ligament of the knee. The mice were dosed intra-articularly on days 7 and 21 with 10 μM PRO1 or PBS. On day 56 the mice were euthanized for histopathological analyses. Parafin blocks were sectioned at 5 um and stained with Safranin O, and representative data was collected for the PBS- and PRO1-treated mice (FIG. 3A). The total medial tibial plateau joint score was determined by two blinded observers and averaged to represent the data shown here using the OARSI scoring system (FIG. 3B). Peripheral blood was collected from each mouse by retro-orbital bleeding on day 1, day 13 and day 56. The circulating COMP was determined by the Animal COMP ELISA kit according to the manufacturer's instructions (MDBioproducts, St Paul, Minn.). Pooled data, 10 mice/group (FIG. 3C).

[8] = molecular target: T1, FLNA/PEBP2β (Homo sapiens, UniProt P21333); test: immunoprecipitation and Western blotting of FLNA/PEBP2β interaction in hMSCs; assay type: cell-based; details: 12 hr treatment
T1 construct: endogenous in cells; host or cells: hMSCs (primary human mesenchymal stem cells)
T1 sequence (P21333 2-2647 limits assumed): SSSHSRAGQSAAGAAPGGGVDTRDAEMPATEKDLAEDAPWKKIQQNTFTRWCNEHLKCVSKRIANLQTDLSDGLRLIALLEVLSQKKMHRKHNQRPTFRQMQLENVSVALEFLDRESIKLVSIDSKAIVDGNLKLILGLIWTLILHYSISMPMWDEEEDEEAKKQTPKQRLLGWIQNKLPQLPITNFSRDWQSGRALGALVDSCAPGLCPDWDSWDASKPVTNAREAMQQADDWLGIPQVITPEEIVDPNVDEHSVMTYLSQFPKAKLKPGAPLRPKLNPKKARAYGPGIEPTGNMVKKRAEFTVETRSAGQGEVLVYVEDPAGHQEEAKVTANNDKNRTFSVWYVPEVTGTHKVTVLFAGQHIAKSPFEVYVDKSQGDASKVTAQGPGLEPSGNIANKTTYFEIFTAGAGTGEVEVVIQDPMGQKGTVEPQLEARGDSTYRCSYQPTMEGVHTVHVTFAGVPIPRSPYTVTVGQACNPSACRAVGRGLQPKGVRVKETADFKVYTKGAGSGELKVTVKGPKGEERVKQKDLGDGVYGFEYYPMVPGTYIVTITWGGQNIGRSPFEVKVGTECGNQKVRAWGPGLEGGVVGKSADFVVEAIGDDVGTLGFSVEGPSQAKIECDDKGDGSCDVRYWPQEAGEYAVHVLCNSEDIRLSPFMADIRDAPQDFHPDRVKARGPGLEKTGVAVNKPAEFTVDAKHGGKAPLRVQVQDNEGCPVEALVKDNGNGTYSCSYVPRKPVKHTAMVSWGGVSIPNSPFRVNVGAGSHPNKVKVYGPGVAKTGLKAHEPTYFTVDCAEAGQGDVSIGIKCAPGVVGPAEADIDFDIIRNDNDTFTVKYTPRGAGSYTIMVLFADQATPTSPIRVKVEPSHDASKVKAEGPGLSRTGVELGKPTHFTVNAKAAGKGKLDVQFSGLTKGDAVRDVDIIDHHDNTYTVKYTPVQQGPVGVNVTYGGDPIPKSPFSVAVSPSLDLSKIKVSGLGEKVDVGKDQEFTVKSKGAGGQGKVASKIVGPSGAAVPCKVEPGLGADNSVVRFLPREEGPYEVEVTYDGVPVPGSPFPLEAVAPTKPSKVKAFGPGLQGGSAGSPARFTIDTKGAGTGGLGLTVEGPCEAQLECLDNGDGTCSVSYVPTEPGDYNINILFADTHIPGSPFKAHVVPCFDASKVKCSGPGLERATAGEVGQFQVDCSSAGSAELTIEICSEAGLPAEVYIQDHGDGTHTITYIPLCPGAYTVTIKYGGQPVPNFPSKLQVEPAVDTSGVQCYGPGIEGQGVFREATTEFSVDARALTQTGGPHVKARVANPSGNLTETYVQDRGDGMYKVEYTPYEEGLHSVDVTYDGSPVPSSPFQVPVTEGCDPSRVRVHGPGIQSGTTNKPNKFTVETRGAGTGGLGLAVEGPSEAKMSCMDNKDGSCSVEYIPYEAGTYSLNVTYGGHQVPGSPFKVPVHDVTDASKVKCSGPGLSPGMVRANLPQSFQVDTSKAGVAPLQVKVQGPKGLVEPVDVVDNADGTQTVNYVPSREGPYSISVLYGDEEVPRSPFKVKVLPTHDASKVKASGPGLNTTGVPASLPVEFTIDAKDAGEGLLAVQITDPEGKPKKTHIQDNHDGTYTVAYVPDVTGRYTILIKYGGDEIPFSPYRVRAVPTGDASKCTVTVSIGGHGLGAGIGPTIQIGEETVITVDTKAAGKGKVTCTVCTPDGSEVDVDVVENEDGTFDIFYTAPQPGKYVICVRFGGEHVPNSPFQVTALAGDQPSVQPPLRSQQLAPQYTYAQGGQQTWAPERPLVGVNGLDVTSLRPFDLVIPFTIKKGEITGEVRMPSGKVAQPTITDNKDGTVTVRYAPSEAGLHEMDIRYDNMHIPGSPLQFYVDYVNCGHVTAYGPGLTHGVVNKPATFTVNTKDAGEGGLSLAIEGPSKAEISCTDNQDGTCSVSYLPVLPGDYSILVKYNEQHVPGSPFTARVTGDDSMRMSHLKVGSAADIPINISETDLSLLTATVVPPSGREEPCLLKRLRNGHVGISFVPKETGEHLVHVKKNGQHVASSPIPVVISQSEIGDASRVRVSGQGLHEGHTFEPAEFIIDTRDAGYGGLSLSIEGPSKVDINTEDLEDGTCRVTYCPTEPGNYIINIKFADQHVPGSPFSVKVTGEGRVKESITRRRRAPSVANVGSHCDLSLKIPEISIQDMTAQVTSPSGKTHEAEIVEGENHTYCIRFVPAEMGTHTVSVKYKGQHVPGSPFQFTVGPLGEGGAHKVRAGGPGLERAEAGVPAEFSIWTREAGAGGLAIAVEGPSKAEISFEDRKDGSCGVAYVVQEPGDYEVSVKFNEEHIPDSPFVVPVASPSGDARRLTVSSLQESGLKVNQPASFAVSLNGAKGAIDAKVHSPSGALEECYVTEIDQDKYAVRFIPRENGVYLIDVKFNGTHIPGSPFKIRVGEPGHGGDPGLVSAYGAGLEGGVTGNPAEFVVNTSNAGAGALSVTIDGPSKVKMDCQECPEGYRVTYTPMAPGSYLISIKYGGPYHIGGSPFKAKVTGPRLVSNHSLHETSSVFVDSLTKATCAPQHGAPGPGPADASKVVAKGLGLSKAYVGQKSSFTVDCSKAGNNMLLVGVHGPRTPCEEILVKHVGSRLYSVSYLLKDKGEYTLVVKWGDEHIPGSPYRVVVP
Method: hMSCs were treated with […] for 12 hr and lysed as above. 2 μg of anti-PEBP23 antibody was added to the cell lysate and incubated overnight at 4° C. prior to addition of agarose beads bearing immobilized protein A/G. After incubation of the lysate with the protein A/G beads for 1 hour, the beads were collected by centrifugation at 2,000 rpm and washed 3 times with lysis buffer. 30 μL of 2×SDS sample buffer was added to the beads and boiled for 5 min.

[9] = in vivo, 0.05 mg/kg

EC50 ([1]; Homo sapiens, Mesenchymal stem cells, 96 h, primary screen, Nile red stained nodules, 4 days, read-out: EC50): 0.1 µM | EC50 ([1]; first value of the cell (before the slash), read-out: CHONDROGENIC μM EC50): 0.225 µM | protein interactions between FLNA and PEBP2β [8]: Inhibits the Protein Interactions | Plasma Conc. [9]: BLQ
Structure (SMILES): O=C(O)c1ccccc1C(=O)Nc1ccc(-c2ccccc2)cc1 [AKT]
cartilage nodule formation ([1]; 100 nM, 4 days, Rhodamine B stain): Rapid Phenotypic Cartilage Nodule Formation | block of cytokine-induced release of NO ([2]; TNFα and oncostatin M cocktail, up to): up to 70% | IC50 ([2]; second value of the cell (after the slash), TNFα and oncostatin M, 48 hours, read-out: NO INHIBTION μM IC50): 0.45 µM | reduction of cytokine-induced release of glycosaminoglycans (GAG) [3]: up to 60% | toxicity [4]: No toxicity | toxicity [5]: No toxicity | type II collagen and aggrecan expression [6]: increase type II collagen and aggrecan expression | circulating COMP levels ([7]; ELISA): Reduced | cartilage damage ([7]; day 56): Reduced Cartilage Damage
